According to patent publication US12208088B2 (Genentech, Inc., priority 2018, dated 2025):

Biological target: HPK1 (Homo sapiens (Human), UniProt Q92918)
Assay: HPK1 Lantha binding assay ("Lanth")
Conditions: binding assays; Morrison Ki fit
Method: Example B2: HPK1 Lantha Binding Assay (“Lanth”)
Procedure: I. Compound Dilution:
The compounds to be tested were diluted by preparing 12.5 uL/well of 5 mM compound (100×) in columns 2 and 13 and 10 ul/well of DMSO in columns 3-12, 14-23, and wells A1-H1 and I24-P24 of the compound plate using a Bravo liquid handling platform. For the reference compound, the top concentration was 1 mM. To the plate was added 10 ul 2 mM staurosporine in wells J1-P1 and A24-H24. A 11 point 5-fold compound serial dilution was performed using the Bravo liquid handling platform. From the plate were transferred 2.5 ul of the solutions from column 2 and column 13 to the 10 ul of DMSO in columns 3 and 14 & so on. The compound plate was centrifuged at 2500 rpm for 1 min. From the compound plate was transferred 80 nl of the compounds into an assay plate using the Echo liquid handler system. One compound plate makes two assay plates. Each assay plate is sealed and stored in an N2 cabinet.
The following assay concentrations and times were used: 2 nM HPK1, 2 nM Eu-Anti-GST Ab, and 15 nM Tracer222, with 60 min incubation time.
III. HPK Lantha Binding Assay:
For the binding assay, 4 ul 2×HPK1 and Eu-anti-GST antibody were added to each well of the assay plate using a Multidrop reagent dispenser. The solutions were incubated in a 23 C incubator for 1 h. To each well of the assay plate was added 4 ul 2× Tracer-222 using a Multidrop reagent dispenser. The solutions were again incubated in a 23 C incubator for 1 h. The results of the assay were read using an Envision plate reader with the following parameters: TR_FRET, 340 ex/615 and 665em; 100 usec Delay; and 200 usec integration.
Compound Ki was analyzed using Morrison ki fit model in XL-fit • a. fit=(1−((((E+x)+(Ki*(1+(S/Kd))))−(((((E+x)+(Ki*(1+(S/Kd))))^2)−((4*E)*x))^0.5))/(2*E))) • res=(y−fit) • b. Parameters: • E=enzyme concentration • S=Tracer222 concentration, Kd=Tracer222 Kd • All measurements reported using the same units (uM)
Exemplary compounds were tested in the binding assays.

HPK1, sequence (Q92918 1-346 limits assumed): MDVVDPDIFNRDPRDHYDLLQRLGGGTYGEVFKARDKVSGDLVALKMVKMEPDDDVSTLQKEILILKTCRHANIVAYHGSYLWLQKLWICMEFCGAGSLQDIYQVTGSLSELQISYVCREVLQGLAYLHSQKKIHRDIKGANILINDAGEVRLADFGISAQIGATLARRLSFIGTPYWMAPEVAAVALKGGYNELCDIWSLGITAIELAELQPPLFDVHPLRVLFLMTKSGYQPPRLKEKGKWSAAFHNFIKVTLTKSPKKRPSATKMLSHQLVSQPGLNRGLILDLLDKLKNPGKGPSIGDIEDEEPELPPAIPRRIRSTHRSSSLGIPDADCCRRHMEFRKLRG

| Compound | Ki |
| --- | --- |
| CN(C)C(=O)c1c(N)ccc(-c2cnc3c(c2Cl)[C@]2(CC[C@H](Oc4ccccn4)C2)CN3)c1F (relative stereo) [Compound 173a, 6-Amino-3-((1R,3S)-4′-chloro-3-(pyridin-2-yloxy)-1′,2′-dihydrospiro[cyclopentane-1,3′-pyrrolo[2,3-b]pyridin]-5′-yl)-2-fluoro-N,N-dimethylbenzamide] | 6.75 nM |
| Cc1cn([C@H]2CC[C@@]3(CNc4ncc(-c5ccc(N)c(C(=O)N(C)C)c5F)c(Cl)c43)C2)nc1N (relative stereo) [Compound 177a, 6-Amino-3-((1R,3S)-3-(3-amino-4-methyl-1H-pyrazol-1-yl)-4′-chloro-1′,2′-dihydrospiro[cyclopentane-1,3′-pyrrolo[2,3-b]pyridin]-5′-yl)-2-fluoro-N,N-dimethylbenzamide] | 14.7 nM |
| Cc1cnn([C@H]2CC[C@@]3(CNc4ncc(-c5ccc(N)c(C(=O)N(C)C)c5F)c(Cl)c43)C2)c1N (relative stereo) [Compound 178a, 6-Amino-3-((1R,3S)-3-(5-amino-4-methyl-1H-pyrazol-1-yl)-4′-chloro-1′,2′-dihydrospiro[cyclopentane-1,3′-pyrrolo[2,3-b]pyridin]-5′-yl)-2-fluoro-N,N-dimethylbenzamide] | 15.9 nM |
| CN(C)C(=O)c1c(N)ccc(-c2cnc3c(c2Cl)[C@]2(CC[C@H](n4cc(C(N)=O)cn4)C2)CN3)c1F (relative stereo) [Compound 180a, 1-((1R,3S)-5′-(4-Amino-3-(dimethylcarbamoyl)-2-fluorophenyl)-4′-chloro-1′,2′-dihydrospiro[cyclopentane-1,3′-pyrrolo[2,3-b]pyridin]-3-yl)-1H-pyrazole-4-carboxamide] | 46.1 nM |
| CN(C)C(=O)c1c(N)ccc(-c2cnc3c(c2Cl)[C@]2(CC[C@H](n4ccccc4=O)C2)CN3)c1F (relative stereo) [Compound 196a, 6-Amino-3-((1R,3S)-4′-chloro-3-(2-oxopyridin-1(2B)-yl)-1′,2′-dihydrospiro[cyclopentane-1,3′-pyrrolo[2,3-b]pyridin]-5′-yl)-2-fluoro-N,N-dimethylbenzamide] | 97.6 nM |
| CN(C)C(=O)c1c(N)ccc(-c2cnc3c(c2Cl)[C@@]2(CN3)C[C@@H]2c2ccncc2)c1F (relative stereo) [Compound 198a, 6-Amino-3-((1R,2R)-4′-chloro-2-(pyridin-4-yl)-1′,2′-dihydrospiro[cyclopropane-1,3′-pyrrolo[2,3-b]pyridin]-5′-yl)-2-fluoro-N,N-dimethylbenzamide] | 15.2 nM |
| CN(C)C(=O)c1c(N)ccc(-c2cnc3c(c2Cl)[C@@]2(CN3)C[C@@H]2c2ccccc2)c1F (relative stereo) [Compound 201a, 6-Amino-3-((1R,2R)-4′-chloro-2-phenyl-1′,2′-dihydrospiro[cyclopropane-1,3′-pyrrolo[2,3-b]pyridin]-5′-yl)-2-fluoro-N,N-dimethylbenzamide] | 3.58 nM |
| CN(C)C(=O)c1c(N)ccc(-c2cnc3c(c2Cl)[C@]2(CC[C@H](CO)C2)CN3)c1F (relative stereo) [Compound 259a, 6-Amino-3-((1R,3S)-4′-chloro-3-(hydroxymethyl)-1′,2′-dihydrospiro[cyclopentane-1,3′-pyrrolo[2,3-b]pyridin]-5′-yl)-2-fluoro-N,N-dimethylbenzamide] | 6.1 nM |
| CN(CCN1CCOCC1)C(=O)c1c(N)ccc(-c2cnc3c(c2Cl)[C@]2(CC[C@](C)(C#N)C2)CN3)c1F (relative stereo) [Compound 272a, 6-Amino-3-((1R,3S)-4′-chloro-3-cyano-3-methyl-1′,2′-dihydrospiro[cyclopentane-1,3′-pyrrolo[2,3-b]pyridin]-5′-yl)-2-fluoro-N-methyl-N-(2-morpholinoethyl)benzamide] | 30.8 nM |
| CN(C)CCCN(C)C(=O)c1c(N)ccc(-c2cnc3c(c2Cl)[C@]2(CC[C@](C)(C#N)C2)CN3)c1F (relative stereo) [Compound 275a, 6-Amino-3-((1R,3S)-4′-chloro-3-cyano-3-methyl-1′,2′-dihydrospiro[cyclopentane-1,3′-pyrrolo[2,3-b]pyridin]-5′-yl)-N-(3-(dimethylamino)propyl)-2-fluoro-N-methylbenzamide] | 41 nM |
| CN1CCN(c2cccc3c(-c4cnc5c(c4Cl)[C@]4(CC[C@H](C(N)=O)C4)CN5)c[nH]c23)C(=O)C1 (relative stereo) [Compound 304a, (1R,3S)-4′-Chloro-5′-(7-(4-methyl-2-oxopiperazin-1-yl)-1H-indol-3-yl)-1′,2′-dihydrospiro[cyclopentane-1,3′-pyrrolo[2,3-b]pyridine]-3-carboxamide] | 43.9 nM |
| NC(=O)[C@H]1CC[C@@]2(CNc3ncc(-c4c[nH]c5c(N6CCNCC6=O)cccc45)c(Cl)c32)C1 (relative stereo) [Compound 305a, (1RS,3SR)-4′-Chloro-5′-(7-(2-oxopiperazin-1-yl)-1H-indol-3-yl)-1′,2′-dihydrospiro[cyclopentane-1,3′-pyrrolo[2,3-b]pyrdine]-3-carboxamide] | 38.6 nM |
| C[C@@H]1C[C@@]12CNc1ncc(-c3c[nH]c4c(N5CCNCC5=O)cccc34)cc12 (relative stereo) [Compound 306a, 1-(3-((1R,2R)-2-methyl-1′,2′-dihydrospiro[cyclopropane-1,3′-pyrrolo[2,3-b]pyridin]-5′-yl)-1H-indol-7-yl)piperazin-2-one] | 43.2 nM |
| C[C@]1(C#N)CC[C@@]2(CNc3ncc(-c4c[nH]c5ccc(C#N)cc45)c(Cl)c32)C1 (relative stereo) [Compound 330a, (1R,3S)-4′-Chloro-5′-(5-cyano-1H-indol-3-yl)-3-methyl-1′,2′-dihydrospiro[cyclopentane-1,3′-pyrrolo[2,3-b]pyridine]-3-carbonitrile] | 73.9 nM |
| C[C@]1(C(N)=O)CC[C@@]2(CNc3ncc(-c4c[nH]c5ccc(C#N)cc45)c(Cl)c32)C1 (relative stereo) [Compound 337a, (1R,3S)-4′-Chloro-5′-(5-cyano-1H-indol-3-yl)-3-methyl-1′,2′-dihydrospiro[cyclopentane-1,3′-pyrrolo[2,3-b]pyridine]-3-carboxamide] | 28.4 nM |
| CN(C)C(=O)c1c(N)ccc(-c2cnc3c(c2Cl)[C@@]2(CN3)C[C@@H]2CO)c1F (single isomer, unassigned) [Compound 39c] | 11.6 nM |
| CN(C)C(=O)c1c(N)ccc(-c2cnc3c(c2Cl)[C@]2(CN3)C[C@H]2CO)c1F (single isomer, unassigned) [Compound 39d] | 18.7 nM |
| Nc1cc(-c2cnc3c(c2Cl)[C@]2(CC[C@H](O)C2)CN3)cc(-c2ncccc2CO)c1 (single isomer, unassigned) [Compound 61a] | 39.1 nM |
| Nc1cc(-c2cnc3c(c2Cl)[C@@]2(CC[C@@H](O)C2)CN3)cc(-c2ncccc2CO)c1 (single isomer, unassigned) [Compound 61b] | 12.1 nM |
| Cn1cccc(-c2cccc(-c3cnc4c(c3Cl)C3(CC[C@@H](O)C3)CN4)c2)c1=O (single isomer, unassigned) [Compound 68a] | 17.9 nM |
| Cn1cccc(-c2cccc(-c3cnc4c(c3Cl)C3(CC[C@@H](O)C3)CN4)c2)c1=O (single isomer, unassigned) [Compound 68b] | 7.7 nM |
| CN(C)C(=O)c1c(N)ccc(-c2cnc3c(c2Cl)[C@]2(CC[C@@H](n4ccnn4)C2)CN3)c1F (single isomer, unassigned) [Compound 90c] | 80.4 nM |
| CN(C)C(=O)c1c(N)ccc(-c2cnc3c(c2Cl)[C@]2(CC[C@H](c4ncn[nH]4)C2)CN3)c1F (single isomer, unassigned) [Compound 99a] | 14.5 nM |
